Entries after “also recorded” stand apart in the source; their conditions may differ. Calls of active or inactive are those of the source. How the calls were made is not given here.
Tested on: CCRIS mutagenicity, Ames/micronucleus/aberration tests
Assay: CCRIS mutagenicity studies
[1] = Test System: AMES SALMONELLA TYPHIMURIUM, Strain/Indicator: TA98, Metabolic Activation: NONE, Method: STANDARD PLATE
[2] = Test System: AMES SALMONELLA TYPHIMURIUM, Strain/Indicator: TA100, Metabolic Activation: NONE, Method: STANDARD PLATE

Measured: mutagenic call

Nc1ccc([N+](=O)[O-])cc1N
inactive: End Point: IN VITRO CHROMOSOMAL ABERRATIONS, Test System: CHL CELLS, Metabolic Activation: RAT, LIVER, S-9, SODIUM PHENOBARBITAL AND 5,6-BENZOFLAVONE inactive; negative; authors report equivocal results for structural changes at 0.75 , 1.5 | Test System: AMES SALMONELLA TYPHIMURIUM, Strain/Indicator: TA4001, Metabolic Activation: NONE, Method: STANDARD PLATE inactive; negative | Test System: AMES SALMONELLA TYPHIMURIUM, Strain/Indicator: TA7001, Metabolic Activation: NONE, Method: STANDARD PLATE inactive; negative | Test System: AMES SALMONELLA TYPHIMURIUM, Strain/Indicator: TA7001, Metabolic Activation: RAT LIVER S-9, AROCLOR 1254, Method: STANDARD PLATE inactive; negative | Test System: AMES SALMONELLA TYPHIMURIUM, Strain/Indicator: TA7003, Metabolic Activation: NONE, Method: STANDARD PLATE inactive; negative | Test System: CHINESE HAMSTER OVARY, Strain/Indicator: CHO-K1-BH4 (HGPRT)/6-THIOGUANINE, Metabolic Activation: NONE inactive; negative | Test System: CHINESE HAMSTER OVARY, Strain/Indicator: CHO-K1-BH4 (HGPRT)/6-THIOGUANINE, Metabolic Activation: S-9 inactive; negative | Test System: E. COLI, Strain/Indicator: WP2 UVRA, Metabolic Activation: HAMSTER, LIVER, S-9, AROCLOR 1254, Method: STANDARD PLATE inactive; negative | Test System: E. COLI, Strain/Indicator: WP2 UVRA, Metabolic Activation: HAMSTER, LIVER, S-9, Method: STANDARD PLATE inactive; negative | Test System: E. COLI, Strain/Indicator: WP2 UVRA, Metabolic Activation: MOUSE, LIVER, S-9, AROCLOR 1254, Method: STANDARD PLATE inactive; negative | Test System: E. COLI, Strain/Indicator: WP2 UVRA, Metabolic Activation: MOUSE, LIVER, S-9, Method: STANDARD PLATE inactive; negative | Test System: E. COLI, Strain/Indicator: WP2 UVRA, Metabolic Activation: NONE, Method: STANDARD PLATE inactive; negative | Test System: E. COLI, Strain/Indicator: WP2 UVRA, Metabolic Activation: RAT, LIVER, S-9, AROCLOR 1254, Method: STANDARD PLATE inactive; negative | Test System: E. COLI, Strain/Indicator: WP2 UVRA, Metabolic Activation: RAT, LIVER, S-9, Method: STANDARD PLATE inactive; negative
active: Test System: AMES SALMONELLA TYPHIMURIUM, Strain/Indicator: TA98(NR), Metabolic Activation: NONE, Method: PREINCUBATION active; positive | Test System: AMES SALMONELLA TYPHIMURIUM, Strain/Indicator: TA98(NR), Metabolic Activation: RAT, LIVER, S-9, AROCLOR 1254, Method: PREINCUBATION active; positive | Test System: AMES SALMONELLA TYPHIMURIUM, Strain/Indicator: TA98, Metabolic Activation: NONE active; positive | Test System: AMES SALMONELLA TYPHIMURIUM, Strain/Indicator: TA98, Metabolic Activation: NONE, Method: PREINCUBATION active; positive | [1] active; positive | Test System: AMES SALMONELLA TYPHIMURIUM, Strain/Indicator: TA98, Metabolic Activation: PEA APICAL BUD S-9, Method: PREINCUBATION active; positive | Test System: AMES SALMONELLA TYPHIMURIUM, Strain/Indicator: TA98, Metabolic Activation: PEA APICAL BUD S-9, Method: STANDARD PLATE active; positive | Test System: AMES SALMONELLA TYPHIMURIUM, Strain/Indicator: TA98, Metabolic Activation: RAT, LIVER, S-9, AROCLOR 1254 active; positive | Test System: AMES SALMONELLA TYPHIMURIUM, Strain/Indicator: TA98, Metabolic Activation: RAT, LIVER, S-9, AROCLOR 1254, Method: PREINCUBATION active; positive | Test System: AMES SALMONELLA TYPHIMURIUM, Strain/Indicator: TA98, Metabolic Activation: RAT, LIVER, S-9, AROCLOR 1254, Method: STANDARD PLATE active; positive | Test System: AMES SALMONELLA TYPHIMURIUM, Strain/Indicator: TA98, Metabolic Activation: RAT, LIVER, S-9, PHENOBARBITAL AND BETA-NAPHTHOFLAVONE, Method: PREINCUBATION active; positive | Test System: AMES SALMONELLA TYPHIMURIUM, Strain/Indicator: TA98, Metabolic Activation: RAT, LIVER, S-9, SODIUM PHENOBARBITAL AND 5,6-BENZOFLAVONE, Method: PREINCUBATION active; positive | Test System: AMES SALMONELLA TYPHIMURIUM, Strain/Indicator: TA98, Metabolic Activation: ZEA MAYS, S-2, Method: STANDARD PLATE active; positive | Test System: AMES SALMONELLA TYPHIMURIUM, Strain/Indicator: TA100(NR), Metabolic Activation: NONE, Method: PREINCUBATION active; positive | Test System: AMES SALMONELLA TYPHIMURIUM, Strain/Indicator: TA100(NR), Metabolic Activation: RAT, LIVER, S-9, AROCLOR 1254, Method: PREINCUBATION active; positive | Test System: AMES SALMONELLA TYPHIMURIUM, Strain/Indicator: TA100, Metabolic Activation: NONE, Method: PREINCUBATION active; positive | [2] active; positive | Test System: AMES SALMONELLA TYPHIMURIUM, Strain/Indicator: TA100, Metabolic Activation: PEA APICAL BUD S-9, Method: PREINCUBATION active; positive | Test System: AMES SALMONELLA TYPHIMURIUM, Strain/Indicator: TA100, Metabolic Activation: PEA APICAL BUD S-9, Method: STANDARD PLATE active; positive | Test System: AMES SALMONELLA TYPHIMURIUM, Strain/Indicator: TA100, Metabolic Activation: RAT, LIVER, S-9, AROCLOR 1254, Method: PREINCUBATION active; positive | Test System: AMES SALMONELLA TYPHIMURIUM, Strain/Indicator: TA100, Metabolic Activation: RAT, LIVER, S-9, AROCLOR 1254, Method: STANDARD PLATE active; positive | Test System: AMES SALMONELLA TYPHIMURIUM, Strain/Indicator: TA100, Metabolic Activation: RAT, LIVER, S-9, PHENOBARBITAL AND BETA-NAPHTHOFLAVONE, Method: PREINCUBATION active; positive | Test System: AMES SALMONELLA TYPHIMURIUM, Strain/Indicator: TA100, Metabolic Activation: ZEA MAYS, S-2, Method: STANDARD PLATE active; positive | Test System: AMES SALMONELLA TYPHIMURIUM, Strain/Indicator: TA104, Metabolic Activation: NONE, Method: STANDARD PLATE active; positive | Test System: AMES SALMONELLA TYPHIMURIUM, Strain/Indicator: TA4006, Metabolic Activation: NONE, Method: STANDARD PLATE active; positive | Test System: AMES SALMONELLA TYPHIMURIUM, Strain/Indicator: TA7002, Metabolic Activation: NONE, Method: STANDARD PLATE active; positive | Test System: AMES SALMONELLA TYPHIMURIUM, Strain/Indicator: TA7002, Metabolic Activation: RAT LIVER S-9, AROCLOR 1254, Method: STANDARD PLATE active; positive | Test System: AMES SALMONELLA TYPHIMURIUM, Strain/Indicator: TA7004, Metabolic Activation: NONE, Method: STANDARD PLATE active; positive | Test System: AMES SALMONELLA TYPHIMURIUM, Strain/Indicator: TA7004, Metabolic Activation: RAT LIVER S-9, AROCLOR 1254, Method: STANDARD PLATE active; positive | Test System: AMES SALMONELLA TYPHIMURIUM, Strain/Indicator: TA7005, Metabolic Activation: NONE, Method: STANDARD PLATE active; positive | Test System: AMES SALMONELLA TYPHIMURIUM, Strain/Indicator: TA7005, Metabolic Activation: RAT LIVER S-9, AROCLOR 1254, Method: STANDARD PLATE active; positive | Test System: Ames Salmonella typhimurium, Strain/Indicator: TA97a, Metabolic Activation: None, Method: Preincubation active; positive (decrease in mutagenicity when 0.99-15.90 mg/plate of chloroform extrac | Test System: Ames Salmonella typhimurium, Strain/Indicator: TA98, Metabolic Activation: None, Method: Preincubation active; positive (decrease in mutagenicity when 0.99-15.90 mg/plate of chloroform extrac; also recorded: active; positive (dose related decrease in mutagenicity when 1.82-21.90 mg/plate of meth | Test System: MOUSE LYMPHOMA, Strain/Indicator: L5178Y (TK+/TK-), Metabolic Activation: NONE, Method: SUSPENSION/PLATE active; positive | Test System: MOUSE LYMPHOMA, Strain/Indicator: L5178Y (TK+/TK-), Metabolic Activation: RAT, LIVER, S-9, AROCLOR 1254, Method: SUSPENSION/PLATE active; positive | Test System: UDS RAT HEPATOCYTES, Strain/Indicator: THY INCORP, Metabolic Activation: NONE, Method: AUTORADIOGRAPHY (SERUM-FREE MEDIA) active; positive

Cc1c(/C=N/OCc2ccc(Cl)cc2)c2cc([N+](=O)[O-])ccc2n1Cc1ccccc1
inactive: [1] inactive; negative | Test System: AMES SALMONELLA TYPHIMURIUM, Strain/Indicator: TA98, Metabolic Activation: RAT, LIVER, S-9, PHENOBARBITAL AND BETA-NAPHTHOFLAVONE, Method: STANDARD PLATE inactive; negative | [2] inactive; negative | Test System: AMES SALMONELLA TYPHIMURIUM, Strain/Indicator: TA100, Metabolic Activation: RAT, LIVER, S-9, PHENOBARBITAL AND BETA-NAPHTHOFLAVONE, Method: STANDARD PLATE inactive; negative
